PubChem BioAssay AID1963826 (Molecular Pharmacology Branch, DTP, NCI, 2024)

System: 926638-142-R-J1-PDC complex spheroid viability
Test: Anticancer human tumor 926638-142-R-J1-PDC patient-derived endometrial carcinoma cell line growth inhibition [POLQ]
Settings: for IC50: curve of first compound; for viability, T/C: stronger effect = lower value; active = viability on the fitted dose curve at most 10% of control; inactive = the rest
Procedure: Multicellular complex tumor spheroid response to Polymerase (POL) inhibitors (novobiocin, ART-558, RP6685) in combination with a variety of drugs and investigational agents in selected tumor cell lines
The POL inhibitors (novobiocin, ART-558, and RP6685) were evaluated both individually and in combination with standard of care and investigational anticancer small molecules within a complex spheroid model of solid tumors. . Complex spheroids include a stromal component modeled by human endothelial cells (HUVEC) and fibroblasts modeled by human mesenchymal stem cells (MSCs). The concentration ranges selected for each drug and investigational agent were based upon clinically achievable concentrations if the clinical Cmax of the agent was known.
Compounds. The drugs and investigational agents: novobiocin (NSC847541), ART-558 (NSC835418), RP-6685 (NSC848927), peposertib (NSC802822), ceralasertib (NSC780249), elimusertib (NSC800525), camonsertib (NSC841442), AZD-1390 (NSC803789), olaparib (NSC753686), talazoparib (NSC767125), rucaparib (NSC756644), sotorasib (NSC818433), MRTX-1133 (NSC836407), SN-38 (NSC673596), topotecan (NSC609699), epotoside (NSC141540), doxorubicin (NSC123127), gemcitabine (NSC613327), 5-fluorouracil (NSC19893), paclitaxel (NSC125973), vemurafenib (NSC761431), MSA-2 (NSC828583), SN-011 (NSC837082), adavosertib (NSC754352), prexasertib (NSC758257), carboplatin (NSC241240) and oxaliplatin (NSC266046), were obtained from the National Cancer Institute (NCI) Developmental Therapeutics Program Chemical Repository (21). The FDA-approved anticancer drug set is available from the Developmental Therapeutics Program at https://dtp.cancer.gov/organization/dscb/obtaining/. […] The stock solutions were prepared in dimethyl sulfoxide (DMSO, Sigma-Aldrich, St. Louis, MO, cat. D2650), except for the platinum compounds which were prepared in saline (Quality Biological, Gaithersburg, MD, cat. 114-055-101), at 800-fold the tested concentration and stored at -70 degrees C prior to their use. All drugs and investigational agents were tested over a range starting from a high concentration at or near the clinical Cmax and decreasing in half-log increments. If the clinical Cmax for an agent had not been determined, the highest concentration tested was 10 microM, except for SN-38, which was tested at a high concentration of 1 microM.
Cell Culture. All cells were maintained in an incubator at 37 degrees C and 5% CO2 with 95% humidity. The PDC lines were cultured according to standard operating procedures established by the NCI PDMR (https://pdmr.cancer.gov). Table 3 of the manuscript, lists the cell lines along with the number of the three cell types plated to form the mct-spheroids and media for tumor cell growth. After thawing, all PDC lines, except 997537-175-T-J1-PDC and 415267-285-R-J2-PDC, were cultured in Matrigel-coated flasks prepared with a working solution of 1X Ham's F-12 nutrient mix, without supplementation (Thermo Fisher Scientific, cat. 11765054), 100 U/mL penicillin-streptomycin (Thermo Fisher Scientific, cat. 15140122), and 2.5% Matrigel (Corning Inc., Corning, NY, cat. 354248) for the first three passages. The two PDC lines 997537-175-T-J1-PDC and 415267-285-R-J2-PDC were cultured on uncoated flasks. The 857933-349-R-J2-PDC line was cultured in 6C/Colon 1B media containing advanced DMEM/F-12 (Thermo Fisher Scientific, cat. 12634028), 10 mM HEPES (Thermo Fisher Scientific, cat. 15630080), 1X GlutaMAX supplement (Thermo Fisher Scientific, cat. 35050061), 0.1 mg/mL primocin (InvivoGen, San Diego, CA, cat. ant-pm-2), 10% defined fetal bovine serum, heat inactivated (HyClone Laboratories Inc., Logan, UT, cat. SH30070.03HI), 50% L-WRN conditioned media (ATCC, cat. CRL-3276), 1.25 mM N-Acetyl-L-cysteine (Sigma-Aldrich, cat. A9165), 10 mM nicotinamide (Sigma-Aldrich, cat. N0636), 1X B-27 supplement (Thermo Fisher Scientific, cat. 17504044), 1X N-2 supplement (Thermo Fisher Scientific, cat. […]

[1] = second compound 0.0316 µM, first compound 0.0316 µM
[2] = second compound 0.0316 µM, first compound 0.1 µM
[3] = second compound 0.0316 µM, first compound 0.316 µM
[4] = second compound 0.0316 µM, first compound 1 µM
[5] = second compound 0.0316 µM, first compound 3.16 µM
[6] = second compound 0.0316 µM, first compound 10 µM
[7] = second compound 0.1 µM, first compound 0.0316 µM
[8] = second compound 0.1 µM, first compound 0.1 µM
[9] = second compound 0.1 µM, first compound 0.316 µM
[10] = second compound 0.1 µM, first compound 1 µM
[11] = second compound 0.1 µM, first compound 3.16 µM
[12] = second compound 0.1 µM, first compound 10 µM
[13] = second compound 0.316 µM, first compound 0.0316 µM
[14] = second compound 0.316 µM, first compound 0.1 µM
[15] = second compound 0.316 µM, first compound 0.316 µM
[16] = second compound 0.316 µM, first compound 1 µM
[17] = second compound 0.316 µM, first compound 3.16 µM
[18] = second compound 0.316 µM, first compound 10 µM
[19] = second compound 1 µM, first compound 0.0316 µM
[20] = second compound 1 µM, first compound 0.1 µM
[21] = second compound 1 µM, first compound 0.316 µM
[22] = second compound 1 µM, first compound 1 µM
[23] = second compound 1 µM, first compound 3.16 µM
[24] = second compound 1 µM, first compound 10 µM
[25] = second compound 3.16 µM, first compound 0.0316 µM
[26] = second compound 3.16 µM, first compound 0.1 µM
[27] = second compound 3.16 µM, first compound 0.316 µM
[28] = second compound 3.16 µM, first compound 1 µM
[29] = second compound 3.16 µM, first compound 3.16 µM
[30] = second compound 3.16 µM, first compound 10 µM
[31] = second compound 10 µM, first compound 0.0316 µM
[32] = second compound 10 µM, first compound 0.1 µM
[33] = second compound 10 µM, first compound 0.316 µM
[34] = second compound 10 µM, first compound 1 µM
[35] = second compound 10 µM, first compound 3.16 µM
[36] = second compound 10 µM, first compound 10 µM
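Note: spheroids exposed to drugs for one week before readout.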
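Throughout, for viability, T/C: percent viability relative to DMSO vehicle control wells set as 100%.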

C#Cc1c(F)ccc2cc(O)cc(-c3ncc4c(N5CC6CCC(C5)N6)nc(OCC56CCCN5CC(F)C6)nc4c3F)c12 (centres undefined) + COC1C(OC(N)=O)C(O)C(Oc2ccc3c(O)c(NC(=O)c4ccc(O)c(CC=C(C)C)c4)c(=O)oc3c2C)OC1(C)C
inactive: viability, T/C [1] 99.4% | viability, T/C [2] 84.1% | viability, T/C [3] 89% | viability, T/C [4] 84.2% | viability, T/C [5] 60.1% | viability, T/C [6] 54.6% | viability, T/C [7] 90.2% | viability, T/C [8] 86.6% | viability, T/C [9] 81.3% | viability, T/C [10] 72.9% | viability, T/C [11] 66.4% | viability, T/C [12] 51.9% | viability, T/C [13] 97.1% | viability, T/C [14] 73.7% | viability, T/C [15] 89.4% | viability, T/C [16] 64.9% | viability, T/C [17] 59.4% | viability, T/C [18] 65.9% | viability, T/C [19] 84.8% | viability, T/C [20] 81.7% | viability, T/C [21] 80.9% | viability, T/C [22] 71.9% | viability, T/C [23] 72.2% | viability, T/C [24] 61.9% | viability, T/C [25] 78.9% | viability, T/C [26] 84.2% | viability, T/C [27] 77.9% | viability, T/C [28] 72.2% | viability, T/C [29] 64.4% | viability, T/C [30] 52.5% | viability, T/C [31] 85.2% | viability, T/C [32] 73.5% | viability, T/C [33] 91.3% | viability, T/C [34] 67.4% | viability, T/C [35] 68.4% | viability, T/C [36] 62.9%
> 10 µM: IC50 (second compound 0.0316 µM) | IC50 (second compound 0.1 µM) | IC50 (second compound 0.316 µM) | IC50 (second compound 1 µM) | IC50 (second compound 3.16 µM) | IC50 (second compound 10 µM)

CC(C)n1c(=O)n(C)c2cnc3cc(F)c(-c4ccc(OCCCN5CCCCC5)nc4)cc3c21 + COC1C(OC(N)=O)C(O)C(Oc2ccc3c(O)c(NC(=O)c4ccc(O)c(CC=C(C)C)c4)c(=O)oc3c2C)OC1(C)C
> 10 µM: IC50 (second compound 0.0316 µM) | IC50 (second compound 0.1 µM) | IC50 (second compound 0.316 µM) | IC50 (second compound 1 µM) | IC50 (second compound 3.16 µM) | IC50 (second compound 10 µM)
inactive: viability, T/C [1] 87.3% | viability, T/C [2] 131% | viability, T/C [3] 131% | viability, T/C [4] 94.1% | viability, T/C [5] 87.2% | viability, T/C [6] 88.7% | viability, T/C [7] 98.7% | viability, T/C [8] 89.8% | viability, T/C [9] 110% | viability, T/C [10] 107% | viability, T/C [11] 90.3% | viability, T/C [12] 93.5% | viability, T/C [13] 101% | viability, T/C [14] 104% | viability, T/C [15] 108% | viability, T/C [16] 90.2% | viability, T/C [17] 86.6% | viability, T/C [18] 89% | viability, T/C [19] 119% | viability, T/C [20] 104% | viability, T/C [21] 104% | viability, T/C [22] 119% | viability, T/C [23] 81.9% | viability, T/C [24] 90.2% | viability, T/C [25] 87.4% | viability, T/C [26] 107% | viability, T/C [27] 101% | viability, T/C [28] 109% | viability, T/C [29] 88.2% | viability, T/C [30] 105% | viability, T/C [31] 114% | viability, T/C [32] 104% | viability, T/C [33] 114% | viability, T/C [34] 100% | viability, T/C [35] 89.5% | viability, T/C [36] 78.5%
